According to PubChem BioAssay AID623925 (Vanderbilt Specialized Chemistry Center, 2012):
The source made the active and inactive calls.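 Rule for the calls: active = compounds whose calcium response changes with concentration, giving a dose-dependent curve as judged by the depositor; inactive = the rest, with no dose-dependent response.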

Each compound was assayed against Muscarinic acetylcholine receptor M2 (Homo sapiens) (UniProt P08172) (assay: human M2 receptor positive allosteric modulation, SAR follow-up, selectivity assay for M4 PAM optimization, CHO cells, Gqi5 chimera, calcium mobilization (AID 623925)). Conditions: CHO hM2/Gqi5 calcium mobilization, ACh EC20 potentiation.
Chain of Muscarinic acetylcholine receptor M2 (Homo sapiens) (P08172 whole entry, looked up): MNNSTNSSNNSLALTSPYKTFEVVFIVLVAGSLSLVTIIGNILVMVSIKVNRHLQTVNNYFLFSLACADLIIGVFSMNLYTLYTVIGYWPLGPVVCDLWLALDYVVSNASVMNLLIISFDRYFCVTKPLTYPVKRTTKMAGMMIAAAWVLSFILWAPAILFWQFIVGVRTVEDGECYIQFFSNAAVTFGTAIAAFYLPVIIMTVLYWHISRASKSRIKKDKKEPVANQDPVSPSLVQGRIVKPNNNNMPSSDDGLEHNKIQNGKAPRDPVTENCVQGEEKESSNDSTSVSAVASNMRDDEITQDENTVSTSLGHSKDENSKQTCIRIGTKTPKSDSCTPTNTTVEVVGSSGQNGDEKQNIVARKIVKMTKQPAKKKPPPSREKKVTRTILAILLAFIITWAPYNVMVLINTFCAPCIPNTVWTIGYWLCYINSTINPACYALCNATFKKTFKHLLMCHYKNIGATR

Compound	outcome	EC50 [µM]
Cc1nc2sc(C(=O)NCc3ccncc3)c(N)c2c(C)c1Cl	inactive	
Cc1nc2sc(C(=O)NC3CC3)c(N)c2c(C)c1Cl		0.548
Cc1nc2sc(C(=O)NCc3ccccc3)c(N)c2c(C)c1Cl	inactive	
Cc1nc2sc(C(=O)NCc3ccc4c(c3)OCO4)c(N)c2c(C)c1Cl	inactive	
Cc1nc2sc(C(=O)NCc3cccnc3)c(N)c2c(C)c1Cl	inactive	

Same assay, conditions: CHO hM2/Gqi5 calcium mobilization, ACh EC20 potentiation; at 30 µM (top of the series)

Compound	% ACh max response
Cc1nc2sc(C(=O)NCCc3ccncc3)c(N)c2c(C)c1Cl	inactive
Cc1nc2sc(C(=O)NCc3cccc(F)c3F)c(N)c2c(C)c1Cl	inactive
Cc1nc2sc(C(=O)NCc3nccs3)c(N)c2c(C)c1Cl	inactive
Cc1nc2sc(C(=O)NCc3ccncn3)c(N)c2c(C)c1Cl	inactive
COc1ccc(C)c2sc(NC(=O)c3ccncc3)nc12	inactive
